Laboratory results as given in patent publication US7807676B2, “Diketo-Piperazine and Piperidine derivatives as antiviral agents” (priority 2006, dated 2010).
Structures can show the parent of a compound that is named as a salt.

The molecules below were run on HIV-1 single-round infectious reporter virus (assay: Single-round infectious HIV-1 luciferase reporter virus infection of HeLa CD4 cells (antiviral EC50)). Settings: Human immunodeficiency virus 1, HeLa, read-out: EC50 Group from Table 3.
Format: cell-based
Outline: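 Env-pseudotyped single-round HIV-1 reporter virus (env-deleted provirus with luciferase in place of nef, made in 293 cells) infected HeLa CD4 cells at MOI ~0.01 with compound present, up to 10 μM final. Luciferase luminescence read after 72 h at 37 °C; EC50 from four-parameter logistic fit of % inhibition over 10 concentrations.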

Compared with `CCOC(=O)CCCCCC(=O)c1cccnc1N1CCN(C(=O)C(=O)c2c[nH]c3c(-n4ccnn4)ncc(F)c23)CC1` [D-43], `Cc1cccnc1N1CCN(C(=O)C(=O)c2c[nH]c3c(-n4ccnn4)ncc(F)c23)CC1` [D-6] is lower in EC50: over 500 nM for the first, under 500 nM for the second. The second is the more potent here.

`O=C(C(=O)N1CCN(c2nsnc2N2CCCC2)CC1)c1c[nH]c2c(-n3ccnn3)ncc(F)c12` [D-47] and `O=C(C(=O)N1CCN(c2nnnn2-c2cccnc2)CC1)c1c[nH]c2c(-n3ccnn3)ncc(F)c12` [E-3] cannot be ordered by EC50: under 500 nM for the first, under 500 nM for the second.

`COc1cnc(-n2ccnn2)c2[nH]cc(C(=O)C(=O)N3CCN(c4nnnn4-c4ccccc4)CC3)c12` [A-1] and `CCc1ncn(-c2ncc(OC)c3c(C(=O)C(=O)N4CCN(c5nnnn5-c5ccccc5)CC4)c[nH]c23)n1` [A-70] cannot be ordered by EC50: under 500 nM for the first, under 500 nM for the second.

`O=C(C(=O)N1CCC(N2C(=O)CC2c2ccccc2)CC1)c1c[nH]c2c(-n3ccnn3)ncc(F)c12` (stereo not drawn) [A-21] and `O=C(C(=O)N1CCN(c2cc(O)nnc2-c2ccccc2)CC1)c1c[nH]c2c(-n3ccnn3)ncc(F)c12` [A-6] cannot be ordered by EC50: under 500 nM for the first, under 500 nM for the second.

`CCOC(=O)c1cc(-c2ncc(F)c3c(C(=O)C(=O)N4CCN(c5nnnn5-c5ccccc5)CC4)c[nH]c23)n[nH]1` [B-33] and `O=C(C(=O)N1CCN(c2nnnn2-c2ccccc2)CC1)c1c[nH]c2c(-c3cc(C(=O)N4CCSC4)[nH]n3)ncc(F)c12` [F-10] cannot be ordered by EC50: under 500 nM for the first, under 500 nM for the second.

`CN1CCN(C(=O)c2cc(-c3ncc(F)c4c(C(=O)C(=O)N5CCN(c6nnnn6-c6ccccc6)CC5)c[nH]c34)n[nH]2)CC1` [F-1] and `O=C(C(=O)N1CCN(c2nnnn2-c2ccccc2)CC1)c1c[nH]c2c(-c3cc(C(=O)N4CCN(CCO)CC4)[nH]n3)ncc(F)c12` [F-8] cannot be ordered by EC50: under 500 nM for the first, under 500 nM for the second.

First: COc1cnc(-n2cnc(C)n2)c2[nH]cc(C(=O)C(=O)N3CCN(C4=NCCCN4c4ccccc4)CC3)c12 [A-39]
Second: COc1cnc(-n2cnc(C)n2)c2[nH]cc(C(=O)C(=O)N3CCN(c4c[nH]nc4-c4ccccc4)CC3)c12 [G-5b]
The EC50 of the first is higher: over 500 nM for the first, under 500 nM for the second.

`C[C@H]1CN(C(=O)C(=O)c2c[nH]c3c(-n4ccnn4)ncc(F)c23)CCN1c1nnnn1-c1ccccc1` [A-61] and `O=C(C(=O)N1C[C@@H]2CC[C@H]1CN2c1nnnn1-c1ccccc1)c1c[nH]c2c(-n3ccnn3)ncc(F)c12` [A-72] cannot be ordered by EC50: under 500 nM for the first, under 500 nM for the second.

`CCOC(=O)Cn1cc(N2CCN(C(=O)C(=O)c3c[nH]c4c(-n5ccnn5)ncc(F)c34)CC2)c(-c2ccccc2)n1` [G-20] and `O=C(C(=O)N1CCN(c2ccnn2-c2ccccc2)CC1)c1c[nH]c2c(-n3ccnn3)ncc(F)c12` [G-9b] cannot be ordered by EC50: under 500 nM for the first, under 500 nM for the second.

`CNC(=O)c1ncc(OC)c2c(C(=O)C(=O)N3CCN(c4nnnn4-c4ccccc4)CC3)c[nH]c12` [B-65] and `NC(=O)c1ncc(F)c2c(C(=O)C(=O)N3CCN(c4nnnn4-c4ccccc4)CC3)c[nH]c12` [B-50] cannot be ordered by EC50: under 500 nM for the first, under 500 nM for the second.

`COc1cnc(-c2csc(C3OCCO3)n2)c2[nH]cc(C(=O)C(=O)N3CCN(c4nnnn4-c4ccccc4)CC3)c12` [B-58] and `CNCc1nc(-c2ncc(OC)c3c(C(=O)C(=O)N4CCN(c5nnnn5-c5ccccc5)CC4)c[nH]c23)cs1` [B-59] cannot be ordered by EC50: under 500 nM for the first, under 500 nM for the second.

`COc1cnc(-c2cc(CN(C)CCN(C)C)[nH]n2)c2[nH]cc(C(=O)C(=O)N3CCN(c4nnnn4-c4ccccc4)CC3)c12` [B-26, 1-(7-(5-(((2-(dimethylamino)ethyl)(methyl)amino)methyl)-1H-pyrazol-3-yl)-4-methoxy-1H-pyrrolo[2,3-c]pyridin-3-yl)-2-(4-(1-phenyl-1H-tetrazol-5-yl)piperazin-1-yl)ethane-1,2-dione TFA] and `COc1cnc(-c2cc(C(=O)NCCc3ccncc3)[nH]n2)c2[nH]cc(C(=O)C(=O)N3CCN(c4nnnn4-c4ccccc4)CC3)c12` [B-12, 3-(4-methoxy-3-(2-oxo-2-(4-(1-phenyl-1H-tetrazol-5-yl)piperazin-1-yl)acetyl)-1H-pyrrolo[2,3-c]pyridin-7-yl)-N-(2-(pyridin-4-yl)ethyl)-1H-pyrazole-5-carboxamide.TFA] cannot be ordered by EC50: under 500 nM for the first, under 500 nM for the second.

`Cn1nc(-c2ncc(F)c3c(C(=O)C(=O)N4CCN(c5nnnn5-c5ccccc5)CC4)c[nH]c23)cc1C(=O)NCCO` [B-44] and `O=C(NCCN1CCOCC1)c1cc(-c2ncc(F)c3c(C(=O)C(=O)N4CCN(c5nnnn5-c5ccccc5)CC4)c[nH]c23)n[nH]1` [B-42] cannot be ordered by EC50: under 500 nM for the first, under 500 nM for the second.

Compared with `COc1cnc(-n2cnc(C)n2)c2[nH]cc(C(=O)C(=O)N3CCC(n4ccnc4-c4ccccc4)CC3)c12` [G-11b], `COc1cnc(-n2cnc(C)n2)c2[nH]cc(C(=O)C(=O)N3CCN(c4ncccc4-c4ccccc4)CC3)c12` [G-3a] is lower in EC50: over 500 nM for the first, under 500 nM for the second. The second is the more potent here.

`COc1ccc(-c2ncc(OC)c3c(C(=O)C(=O)N4CCN(c5nnnn5-c5ccccn5)CC4)c[nH]c23)cn1` [H-10] and `COc1cnc(-c2ccc(N)nc2)c2[nH]cc(C(=O)C(=O)N3CCN(c4nnnn4-c4ccccn4)CC3)c12` [H-9] cannot be ordered by EC50: under 500 nM for the first, under 500 nM for the second.

`COc1cnc(-n2cnc(C)n2)c2[nH]cc(C(=O)C(=O)N3CCN(c4nnnn4-c4cccc(F)n4)CC3)c12` [E-12a] and `COc1cnc(-c2cccnc2F)c2[nH]cc(C(=O)C(=O)N3CCN(c4nnnn4-c4ccccn4)CC3)c12` [H-2] cannot be ordered by EC50: under 500 nM for the first, under 500 nM for the second.

`CCOc1ncc(-c2ncc(OC)c3c(C(=O)C(=O)N4CCN(c5nnnn5-c5ccccn5)CC4)c[nH]c23)s1` [B-89] and `COc1cnc(-c2cccnc2Cl)c2[nH]cc(C(=O)C(=O)N3CCN(c4nnnn4-c4ccccn4)CC3)c12` [H-4] cannot be ordered by EC50: under 500 nM for the first, under 500 nM for the second.

Compared with `Cc1cc(NC(=O)c2cccnc2N2CCN(C(=O)C(=O)c3c[nH]c4c(-n5ccnn5)ncc(F)c34)CC2)no1` [D-39], `COc1cccc(-n2nnnc2N2CCN(C(=O)C(=O)c3c[nH]c4c(-n5ccnn5)ncc(F)c34)CC2)c1` [E-9] is lower in EC50: over 500 nM for the first, under 500 nM for the second. The second is the more potent here.

`Nc1ncc(F)c2c(C(=O)C(=O)N3CCN(c4nnnn4-c4ccccc4)CC3)c[nH]c12` [B-17, 1-(7-amino-4-fluoro-1H-pyrrolo[2,3-c]pyridin-3-yl)-2-(4-(1-phenyl-1H-tetrazol-5-yl)piperazin-1-yl)ethane-1,2-dione] and `CO/N=C(\C)c1ncc(F)c2c(C(=O)C(=O)N3CCN(c4nnnn4-c4ccccc4)CC3)c[nH]c12` [B-48] cannot be ordered by EC50: under 500 nM for the first, under 500 nM for the second.

`COc1cnc(-c2cnc(N3CCN(C)CC3)cn2)c2[nH]cc(C(=O)C(=O)N3CCN(c4nnnn4-c4ccccc4)CC3)c12` [G-2a] and `COc1cnc(-c2cnc(-n3ccnc3)cn2)c2[nH]cc(C(=O)C(=O)N3CCN(c4nnnn4-c4ccccc4)CC3)c12` [G-2c] cannot be ordered by EC50: under 500 nM for the first, under 500 nM for the second.

`COc1cnc(-c2ccc(N3CCN(C(=O)NC(C)C)CC3)cc2)c2[nH]cc(C(=O)C(=O)N3CCN(c4nnnn4-c4ccccn4)CC3)c12` [B-87] and `O=C(C(=O)N1CCN(c2nnnn2-c2ccccc2)CC1)c1c[nH]c2c(-c3ccn(CCN4CCOCC4)n3)ncc(F)c12` [B-31] cannot be ordered by EC50: under 500 nM for the first, under 500 nM for the second.

`COc1cnc(-n2cnc(C)n2)c2[nH]cc(C(=O)C(=O)N3CCN(c4cncnc4-c4ccccc4)CC3)c12` [G-19b] and `CCc1ncn(-c2ncc(OC)c3c(C(=O)C(=O)N4CCN(c5ncccc5C(=O)c5nccs5)CC4)c[nH]c23)n1` [A-68] cannot be ordered by EC50: under 500 nM for the first, under 500 nM for the second.

`COc1cnc(-n2cnc(C)n2)c2[nH]cc(C(=O)C(=O)N3CCN(c4ncccc4C(=O)N4CCOCC4)C[C@H]3C)c12` [D-13] was tested, and the EC50 was over 500 nM.
